Tests used:
[1] = biological target: human serotonin transporter (SERT) (Homo sapiens (Human), UniProt P31645); experiment: Scintillation Proximity Assay (SPA) for human SERT binding ([3H]citalopram); details: recombinant human SERT, CHO membranes
Source text: (§1) Affinity is expressed in terms of inhibition constant (Ki) of the compounds of the invention for DAT, NET and SERT, and it is typically calculated from the IC50 values obtained in competition experiments using Cheng and Prusoff equation (Cheng and Prusoff, Biochem. Pharmacol. 22:3099, 1973). In the context of the present invention pKi values (corresponding to the antilogarithm of Ki) are used instead of Ki; pKi are only estimated to be accurate to about 0.3 log unit.
(§2) Chinese Hamster Ovary (CHO) cells stably expressing either human DAT (hDAT-CHO) or human NET (hNET-CHO) or human SERT (hSERT-CHO) are used for the membrane preparations for radioligand binding assays using Scintillation proximity Assay (SPA) technique. Each cell line is cultured independently in F-12K Nutrient Mixture containing 10% of Fetal Bovine Serum (FBS) supplemented with 450 μg/ml G-418. When cells are at 70-80% of confluence 3 mM Na Butyrate was added to the cell culture medium. After 24 h of incubation, the culture medium was removed and the cells detached with Versene (DAT) or by scraping (NET and SERT). Cell suspension is centrifuged at 41,000 g for 10 minutes at 4° C. The resultant pellets are re-suspended in 15 volumes of Ice-cold buffer (20 mM HEPES, 145 mM NaCl, 5 mM KCl, pH7.3), homogenized using an Ultra Turrax homogeniser and centrifuged as before. The resultant membrane pellets are re-suspended in up to 15 volume of ice-cold buffer, incubated for 20 minutes at 37° C and centrifuged as before at 41,000 g. The final membrane pellets are re-suspended into 5-10 volumes of ice-cold buffer, dispensed into 0.5 ml aliquots and stored at −80° C. until use. Protein concentration for each preparation is determined using Bio-Rad Protein Assay Kit.
(§3) The affinity of the compounds of the invention to the human DAT or NET or SERT transporters is assessed by using the [^3H]WIN-35,428 or [^3H]nisoxetine or [^3H]citalopram binding assays in recombinant human DAT, NET and SERT membranes with the SPA technology. The final assay volume is 50 μL in 384 well plates.
(§4) Briefly, 0.5 μL of test compound in neat DMSO or 0.5 μL of DMSO for total binding (TB) or 0.5 μL of indatraline 1 mM (10 μM final concentration) for non specific binding (NSB) are added to the assay plate. 50 μL of the SPA mixture is added to each well, containing: 30 μg/mL or 10 μg/mL or 25 μg/mL DAT, NET, SERT membranes, respectively; 5 nM [^3H]WIN-35,428 or 5 nM [^3H]nisoxetine or 1 nM [^3H]citalopram, for DAT, NET, SERT assay, respectively; 2.5 mg/mL or 1 mg/mL or 4 mg/mL WGA-PVT SPA beads (PerkinElmer RPNQ0001, for DAT, NET, SERT assay, respectively. All components are added to Assay Buffer (20 mM HEPES pH 7.4, 145 mM NaCl, 5 mM KCl, 0.01% Pluronic F-127). 0.02% BSA was used for DAT binding only. Plates are sealed with Topseal A and centrifuged 1 min, 800 rpm. Plates are loaded into a 1450 Microbeta TriLux (Perkin-Elmer) plate reader and the radioactivity counted after at least 4 hrs or overnight incubation at room temperature. Curve fitting and IC50 estimations are performed using a four parameter model in XLfit (IDBS, Guilford, UK) for Microdoft Excel (Microsoft, Redmond, Wash.).

[2] = biological target: human norepinephrine transporter (NET) (Homo sapiens (Human), UniProt P23975); experiment: Scintillation Proximity Assay (SPA) for human NET binding ([3H]nisoxetine); details: recombinant human NET, CHO membranes
Source text: as §1, §2, §3, §4

[3] = biological target: human ERG potassium channel (hERG) (Homo sapiens (Human), UniProt Q12809); experiment: hERG channel tail current recording using Rapid ICE automated patch-clamp; assay type: cell-based; details: HEK293 cells stably transfected with hERG
Experimental: The potency of the compounds of the invention in inhibiting human ERG potassium channel (hERG) tail current is assessed in a recombinant HEK293 cell line stably transfected with hERG cDNA using Rapid ICE™ (Rapid Ion Channel Electrophysiology) assay. Rapid ICE™ is an automated patch-clamp assay utilizing the PatchXpress 7000A system (Molecular Devices Corporation) or the QPatch HTX system (Sophion Bioscience A/S).
Briefly cells are cultivated for 24 to 72 hours before recordings in minimum essential medium supplemented with 10% FBS, 1% non-essential amino acids, 1% sodium pyruvate, 2 mM L-glutamine. The day of the experiment cells are detached with TrypLE and prepared to be loaded on the instrument. For PatchXpress cells are finally resuspended in 150 μl of Extracellular Buffer whereas for QPatch cells are resuspended in 7 ml Serum-Free Media containing 25 mM Hepes and Soybean trypsin inhibitor and immediately placed in the cell storage tank of the machine. The composition of the Extracellular Buffer is (mM): NaCl 137; KCl 4; CaCl2 1.8; MgCl2 1.0; D-glucose 10; N 2 hydroxyethylpiperazine-N′-2-ethanesulfonic acid (HEPES) 10; pH 7.4 with 1 M NaOH. The composition of the pipette solution is (mM): KCl 130; MgCl2 1.0; Ethylene glycol-bis(β-aminoethyl ether)-N,N,N′,N′-tetraacetic acid (EGTA) 5; MgATP 5; HEPES 10; pH 7.2 with 1 M KOH. The voltage protocol includes the following steps: step from −80 mV to −50 mV for 200 ms, +20 mV for 4.8 s, step to −50 mV for 5 s then step to the holding potential of −80 mV. Compounds of the invention are dissolved in DMSO and diluted in Extracellular Buffer to achieve final test concentrations (0.1, 1 and 10 μM) in 0.1% DMSO. The voltage protocol is run and recorded continuously during the experiment. The vehicle, corresponding to 0.1% DMSO in Extracellular Buffer, is then applied for 3 min followed by the test substance in triplicate. The standard combined exposure time is 5 min. The average of tail current amplitude values recorded from 4 sequential voltage pulses is used to calculate for each cell the effect of the test substance by calculating the residual current (% control) compared with vehicle pre-treatment. Data are reported as % inhibition for each concentration tested and IC50 values are estimated using DataXpress or QPatch software. At least two cells are tested, more if results diverge.

[4] = biological target: human dopamine transporter (DAT) (Homo sapiens (Human), UniProt Q01959); experiment: Scintillation Proximity Assay (SPA) for human DAT binding ([3H]WIN-35,428); details: recombinant human DAT, CHO
Source text: as §1, §2, §3, §4
The potency of the compounds of the invention in blocking the DAT function is measured using an uptake assay in a recombinant CHO cell line expressing human DAT (hDAT-CHO). Potency is measured in terms of pIC50 by testing the compounds of invention for the inhibition of [^3H]-dopamine uptake in DAT-CHO cells using a SPA technology in 384 well format.
Briefly, on the days of the experiment hDAT-CHO cells are detached using Versene and added (75,000 cells/mL) to the SPA Mixture, which contains the following components in Assay Buffer (20 mM HEPES, 145 mM NaCl, 5 mM KCl, 2 mM CaCl2, 1 mM MgCl2 and 1 g/L glucose, pH 7.3): 0.02% w/v of Pluronic F127, 2 mg/mL SPA Imaging beads (RPNQ0260, PerkinElmer), 10 μM pargyline and 80 nM of [^3H]-dopamine. […]

Sequence of human norepinephrine transporter (NET) (P23975 whole entry): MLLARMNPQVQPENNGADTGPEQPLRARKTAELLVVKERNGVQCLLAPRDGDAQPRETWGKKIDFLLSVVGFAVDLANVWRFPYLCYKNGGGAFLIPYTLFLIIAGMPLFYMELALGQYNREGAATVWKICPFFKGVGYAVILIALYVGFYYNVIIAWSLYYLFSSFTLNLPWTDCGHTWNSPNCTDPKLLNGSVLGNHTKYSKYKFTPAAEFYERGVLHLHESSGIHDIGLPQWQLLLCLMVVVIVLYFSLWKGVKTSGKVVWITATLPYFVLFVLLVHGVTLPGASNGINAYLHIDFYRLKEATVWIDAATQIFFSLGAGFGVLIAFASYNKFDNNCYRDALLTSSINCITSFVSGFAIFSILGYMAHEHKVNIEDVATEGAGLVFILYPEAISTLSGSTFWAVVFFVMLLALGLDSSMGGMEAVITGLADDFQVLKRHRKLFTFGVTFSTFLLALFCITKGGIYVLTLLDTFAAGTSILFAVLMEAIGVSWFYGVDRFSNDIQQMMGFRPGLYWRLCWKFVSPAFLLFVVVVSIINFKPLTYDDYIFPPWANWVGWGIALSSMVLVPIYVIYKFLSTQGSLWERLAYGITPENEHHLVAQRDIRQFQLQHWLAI
Sequence of human dopamine transporter (DAT) (Q01959 whole entry): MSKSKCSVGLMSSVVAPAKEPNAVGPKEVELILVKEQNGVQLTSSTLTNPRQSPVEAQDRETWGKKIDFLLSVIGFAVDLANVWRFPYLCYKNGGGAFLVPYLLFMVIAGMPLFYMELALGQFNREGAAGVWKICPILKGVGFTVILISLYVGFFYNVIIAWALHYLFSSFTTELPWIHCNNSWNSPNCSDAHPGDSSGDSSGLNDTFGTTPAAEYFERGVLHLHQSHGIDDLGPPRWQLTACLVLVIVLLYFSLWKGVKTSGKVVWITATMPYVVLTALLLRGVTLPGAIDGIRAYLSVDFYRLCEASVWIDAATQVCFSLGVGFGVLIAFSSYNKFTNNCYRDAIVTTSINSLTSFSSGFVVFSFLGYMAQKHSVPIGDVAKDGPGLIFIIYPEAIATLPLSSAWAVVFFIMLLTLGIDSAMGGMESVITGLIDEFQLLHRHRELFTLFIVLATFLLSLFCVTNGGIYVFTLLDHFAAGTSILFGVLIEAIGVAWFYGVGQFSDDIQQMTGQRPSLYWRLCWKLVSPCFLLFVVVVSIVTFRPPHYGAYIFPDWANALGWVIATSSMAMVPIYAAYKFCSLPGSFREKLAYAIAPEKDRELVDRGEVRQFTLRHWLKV
Sequence of human ERG potassium channel (hERG) (Q12809 whole entry): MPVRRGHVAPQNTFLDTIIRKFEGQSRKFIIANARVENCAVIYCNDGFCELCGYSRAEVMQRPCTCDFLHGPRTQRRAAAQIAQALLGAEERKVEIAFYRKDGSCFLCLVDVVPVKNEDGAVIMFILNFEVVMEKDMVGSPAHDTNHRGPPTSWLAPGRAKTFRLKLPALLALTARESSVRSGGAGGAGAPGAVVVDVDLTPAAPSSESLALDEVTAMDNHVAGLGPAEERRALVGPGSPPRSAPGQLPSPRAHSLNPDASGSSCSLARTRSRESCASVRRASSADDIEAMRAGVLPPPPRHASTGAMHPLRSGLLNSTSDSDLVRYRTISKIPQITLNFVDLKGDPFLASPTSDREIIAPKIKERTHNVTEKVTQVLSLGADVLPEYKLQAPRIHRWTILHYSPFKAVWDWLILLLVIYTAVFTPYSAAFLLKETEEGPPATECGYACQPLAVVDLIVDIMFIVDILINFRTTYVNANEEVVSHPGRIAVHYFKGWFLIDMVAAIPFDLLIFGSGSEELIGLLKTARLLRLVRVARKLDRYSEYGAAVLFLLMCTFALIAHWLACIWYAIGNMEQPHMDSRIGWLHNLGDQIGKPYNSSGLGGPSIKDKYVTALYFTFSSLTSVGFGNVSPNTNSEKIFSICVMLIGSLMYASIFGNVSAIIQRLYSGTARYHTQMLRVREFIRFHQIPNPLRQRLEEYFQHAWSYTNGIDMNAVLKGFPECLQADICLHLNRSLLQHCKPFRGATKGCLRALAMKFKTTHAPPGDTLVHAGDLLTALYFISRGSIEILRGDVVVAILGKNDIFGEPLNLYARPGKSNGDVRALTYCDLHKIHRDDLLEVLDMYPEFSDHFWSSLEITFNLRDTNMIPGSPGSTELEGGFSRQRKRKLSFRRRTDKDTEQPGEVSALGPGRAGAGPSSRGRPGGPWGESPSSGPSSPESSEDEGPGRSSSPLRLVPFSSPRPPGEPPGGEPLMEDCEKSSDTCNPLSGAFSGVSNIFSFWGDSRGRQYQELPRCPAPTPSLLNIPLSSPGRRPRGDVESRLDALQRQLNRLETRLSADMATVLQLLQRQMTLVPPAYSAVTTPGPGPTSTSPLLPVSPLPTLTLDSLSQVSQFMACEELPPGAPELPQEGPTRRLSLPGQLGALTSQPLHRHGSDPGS
Sequence of human serotonin transporter (SERT) (P31645 whole entry): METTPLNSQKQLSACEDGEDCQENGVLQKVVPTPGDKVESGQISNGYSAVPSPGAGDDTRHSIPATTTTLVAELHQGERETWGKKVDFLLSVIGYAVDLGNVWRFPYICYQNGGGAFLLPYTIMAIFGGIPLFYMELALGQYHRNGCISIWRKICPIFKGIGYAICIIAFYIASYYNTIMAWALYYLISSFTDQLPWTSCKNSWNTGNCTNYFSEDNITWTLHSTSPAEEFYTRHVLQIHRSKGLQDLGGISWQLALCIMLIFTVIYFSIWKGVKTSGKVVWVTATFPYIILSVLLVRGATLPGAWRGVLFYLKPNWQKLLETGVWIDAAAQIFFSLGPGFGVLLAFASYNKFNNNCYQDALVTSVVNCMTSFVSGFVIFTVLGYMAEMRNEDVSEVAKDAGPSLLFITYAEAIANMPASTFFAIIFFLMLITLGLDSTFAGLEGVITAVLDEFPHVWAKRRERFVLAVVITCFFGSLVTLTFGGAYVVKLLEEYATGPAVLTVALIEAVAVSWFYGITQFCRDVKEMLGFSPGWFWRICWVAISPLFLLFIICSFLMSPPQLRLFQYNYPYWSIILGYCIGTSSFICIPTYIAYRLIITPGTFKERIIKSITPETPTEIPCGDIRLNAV

Molecule | IC50 [1] [µM] | pIC50 NET [2] | pIC50 hERG [3] | pIC50 DAT [4] | IC50 [3] [µM] | pIC50 SERT [1]
CN(C)CC1(O)CCN(c2nc(Oc3cccc(F)c3)cc(C(F)(F)F)n2)CC1 [Example 1, 4-[(dimethylamino)methyl]-1-[4-(3-fluorophenoxy)-6(trifluoromethyl)pyrimidin-2-yl]piperidin-4-ol] | 13.5 | 7.00 | 6.6 | 8.46 | – | –
OC1(CN2CCCC2)CCN(c2nc(Oc3cccc(F)c3)cc(C(F)(F)F)n2)CC1 [Example 2, 1-[4-(3-fluorophenoxy)-6-(trifluoromethyl)pyrimidin-2-yl]-4-(pyrrolidin-1-ylmethyl)piperidin-4-ol] | 17 | 7.57 | 6.7 | 8.80 | – | –
OC1(CNC2CC2)CCN(c2nc(Oc3cccc(F)c3)cc(C(F)(F)F)n2)CC1 [Example 3, 4-[(cyclopropylamino)methyl]-1-[4-(3-fluorophenoxy)-6-(trifluoromethyl)pyrimidin-2-yl]piperidin-4-ol] | 21.4 | 6.42 | 6.0 | 8.13 | – | –
CN(CC1(O)CCN(c2nc(Oc3cccc(F)c3)cc(C(F)(F)F)n2)CC1)C1CC1 [Example 4, 4-{[cyclopropyl(methyl)amino]methyl}-1-[4-(3-fluorophenoxy)-6-(trifluoromethyl)pyrimidin-2-yl]piperidin-4-ol] | > 100 | 6.19 | 6.1 | 7.38 | – | –
CNCC1(O)CCN(c2nc(Oc3cccc(F)c3)cc(C(F)(F)F)n2)CC1 [Example 5, 1-[4-(3-fluorophenoxy)-6-(trifluoromethyl)pyrimidin-2-yl]-4-[(methylamino)methyl]piperidin-4-ol] | 23.4 | 6.61 | 5.7 | 8.33 | – | –
OC1(CN2CCC(F)(F)C2)CCN(c2nc(Oc3cccc(F)c3)cc(C(F)(F)F)n2)CC1 [Example 6, 4-[(3,3-difluoropyrrolidin-1-yl)methyl]-1-[4-(3-fluorophenoxy)-6-(trifluoromethyl)pyrimidin-2-yl]piperidin-4-ol] | 32.4 | 5.94 | – | 6.89 | > 10 | –
Cl.OC1(CN2CCCNCC2)CCN(c2nc(Oc3cccc(F)c3)cc(C(F)(F)F)n2)CC1 [Example 7, 4-(1,4-diazepan-1-ylmethyl)-1-[4-(3-fluorophenoxy)-6-(trifluoromethyl)pyrimidin-2-yl]piperidin-4-ol hydrochloride] | 2.95 | 6.53 | 5.8 | 8.06 | – | –
CC1CCC(C)N1CC1(O)CCN(c2nc(Oc3cccc(F)c3)cc(C(F)(F)F)n2)CC1 (centres unmarked) [Example 8, 4-[(2,5-dimethylpyrrolidin-1-yl)methyl]-1-[4-(3-fluorophenoxy)-6-(trifluoromethyl)pyrimidin-2-yl]piperidin-4-ol] | 6.03 | 6.29 | 6.8 | 7.66 | – | –
NCC1(O)CCN(c2nc(Oc3cccc(F)c3)cc(C(F)(F)F)n2)CC1 [Example 11, 4-(aminomethyl)-1-[4-(3-fluorophenoxy)-6-(trifluoromethyl)pyrimidin-2-yl]piperidin-4-ol] | 7.59 | 6.46 | 5.8 | 8.72 | – | –
NCC1(F)CCN(c2nc(Oc3cccc(F)c3)cc(C(F)(F)F)n2)CC1 [Example 13, {4-fluoro-1-[4-(3-fluorophenoxy)-6-(trifluoromethyl)pyrimidin-2-yl]piperidin-4-yl}methanamine] | 7.24 | 6.40 | 5.4 | 8.31 | – | –
NCC1(O)CCN(c2cc(Oc3cccc(F)c3)cc(F)c2F)CC1 [Example 18, 4-(aminomethyl)-1-[2,3-difluoro-5-(3-fluorophenoxy)phenyl]piperidin-4-ol] | 6.17 | 7.51 | 6.0 | 9.05 | – | –
CC(C)C(=O)NCC1(O)CCN(c2nc(Oc3cccc(F)c3)cc(C(F)(F)F)n2)C1 (centres unmarked) [Example 34, N-({1-[4-(3-fluorophenoxy)-6-(trifluoromethyl)pyrimidin-2-yl]-3-hydroxypyrrolidin-3-yl}methyl)-2-methylpropanamide] | > 100 | 4.72 | – | 6.50 | – | –
O=C(NCC1(O)CCN(c2nc(Oc3cccc(F)c3)cc(C(F)(F)F)n2)C1)C1CNC1 (centres unmarked) [Example 35, N-({1-[4-(3-fluorophenoxy)-6-(trifluoromethyl)pyrimidin-2-yl]-3-hydroxypyrrolidin-3-yl}methyl)azetidine-3-carboxamide] | 33.1 | 6.56 | – | 8.25 | – | –
(3R or 3S)-3-[(cyclopropylamino)methyl]-1-[4-(3-fluorophenoxy)-6-(trifluoromethyl)pyrimidin-2-yl]pyrrolidin-3-ol [Example 32] | – | 6.63 | – | 8.47 | – | 4.36

— patent publication US9920053B2, “N-(hetero)aryl-substituted heteroyclic derivatives useful for the treatment of diseases or conditions related to the central nervous system” (CHRONOS THERAPEUTICS LIMITED, priority 2014, dated 2018)
